Holding throughout (assay): Bliss excess, mean over the matrix (fraction); higher = more synergy
Assay [1] has as its system CL-11 (Colorectal Carcinoma). Summed up:
(§1)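 After 24 hours at 37°C and 5% CO2 in 1536-well plates, cells in DMEM/F12 or RPMI plus 10% FBS received two-drug dose matrices for 72 hours. Viability came from CellTiter-Glo 2.0 luminescence and was scaled as inhibition, anchored at 0 by vehicle wells and at 1 by blank wells. Combination Emax is taken as the second-highest inhibition in the matrix, and Bliss excess as the observed combination effect less EA + EB − EA·EB, with EA and EB the single-agent effects.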

The subject of assay [2] is CPC-N (Small Cell Lung Carcinoma). Summed up:
as §1

Assay [3] deals with ES6 (Ewing's Sarcoma). Summed up: as §1
Assay [4] deals with LS-1034 (Colorectal Carcinoma). An outline of the steps: as §1
Assay [5] relates to MOLP-8 (Plasma Cell Myeloma). An outline of the steps:
as §1

Assay [6] has as its system NCI-H3118 (Head and Neck Carcinoma). An outline of the steps:
as §1

In assay [7] the test system is NCI-H596 (Other Solid Carcinomas). Summed up:
as §1

The test system of assay [8] is OAW-28 (Ovarian Carcinoma). Summed up:
as §1

Assay [9] deals with OVCAR-3 (Ovarian Carcinoma). Summed up: as §1
Assay [10] has as its system P32-ISH (Burkitt's Lymphoma). An outline of the steps: as §1
The test system of assay [11] is PA-TU-8988T (Pancreatic Carcinoma). Summed up:
as §1

The subject of assay [12] is PL4 (Pancreatic Carcinoma). An outline of the steps:
as §1

Assay [13] deals with RCC-JW (Kidney Carcinoma). An outline of the steps: as §1
For assay [14], the system named is SK-CO-1 (Colorectal Carcinoma). An outline of the steps: as §1
The subject of assay [15] is SKG-IIIa (Cervical Carcinoma). Summed up: as §1
Assay [16] has as its system SNU-407 (Colorectal Carcinoma). Summed up: as §1
Assay [17] has as its system SUP-M2 (T-Cell Non-Hodgkin's Lymphoma). An outline of the steps:
as §1

Assay [18] has as its system T47D (Breast Carcinoma). An outline of the steps: as §1
Assay [19] deals with UACC-257 (Melanoma). An outline of the steps: as §1
In assay [20] the test system is WM35 (Melanoma). Summed up: as §1

Experimental findings from the supplement of paper PMC11061612 are described below.

On to `CCN(CCO)CCCOc1ccc2c(Nc3cc(CC(=O)Nc4cccc(F)c4)[nH]n3)ncnc2c1` [AZD2811] + C=CCn1c(=O)c2cnc(Nc3ccc(N4CCN(C)CC4)cc3)nc2n1-c1cccc(C(C)(C)O)n1 [AZD1775] (first compound max 1 µM, partner max 1 µM), for which the Bliss excess is 0.0034 in [1]; -0.0239 in [2]; -0.0792 in [3]; 0.0033 in assay [4]; 0.0185 in assay [5]; -0.0798 in assay [6]. The Bliss excess was 0.0114 in [7]; 0.0277 in assay [8]; -0.0154 in assay [9]; -0.0336 in assay [10]; 0.0311 in assay [11]; -0.0002 in assay [12]. For the same compound, the Bliss excess is -0.0118 in [13]; -0.0559 in [14]; -0.0142 in [15]; -0.015 in assay [16]; -0.036 in assay [17]; -0.0236 in assay [18]. The Bliss excess in assay [19] is -0.032; in assay [20] it was -0.0098.

Regarding `CCN(CCO)CCCOc1ccc2c(Nc3cc(CC(=O)Nc4cccc(F)c4)[nH]n3)ncnc2c1` [AZD2811] + C[C@@H]1COCCN1C2=NC(=NC(=C2)C3(CC3)[S@](=N)(=O)C)C4=C5C=CNC5=NC=C4 [AZD6738] (first compound max 1 µM, 7x7, partner max 10 µM), the Bliss excess in assay [1] is -0.0488; in [2], -0.0794; in assay [3] it was -0.0479; in [4], -0.0473; in assay [5], -0.028; in [6], -0.0682. For the same compound, the Bliss excess is -0.0056 in [7]; -0.0207 in assay [8]; -0.0269 in [9]; -0.0153 in assay [10]; 0.0002 in [11]; -0.0171 in assay [12]. Further, the Bliss excess in assay [13] was -0.0203; in assay [14] it was -0.0309; in assay [15] it was -0.0409; in assay [16], -0.094; in assay [17], -0.0545; in assay [18], -0.0493. The results for the Bliss excess in assay [19] and in assay [20] were -0.0649 and -0.0306, respectively.

In the case of `CCN(CCO)CCCOc1ccc2c(Nc3cc(CC(=O)Nc4cccc(F)c4)[nH]n3)ncnc2c1` [AZD2811] + O=C(c1cc(Cc2n[nH]c(=O)c3ccccc23)ccc1F)N1CCN(C(=O)C2CC2)CC1 [Olaparib] (first compound max 1 µM, 7x7, partner max 10 µM), the Bliss excess in assay [1] is 0.0084; in assay [2], -0.0238; in assay [3], -0.0457; in assay [4], -0.0253; in assay [5] it was 0.0384; in assay [6] it was 0.0075. Besides, the Bliss excess is -0.0372 in assay [7]; -0.0474 in assay [8]; -0.0051 in [9]; -0.035 in assay [10]; 0.0228 in assay [11]; -0.0043 in assay [12]. The Bliss excess in assay [13] is -0.0021; in [14] it was 0.0223; in assay [15], -0.0286; in assay [16] it was -0.0292; in assay [17] it was -0.0429; in [18], 0.005. Moreover, the Bliss excess is -0.0322 in assay [19] and 0.0069 in assay [20].

Regarding `CN(CCO)CC[C@H](CSc1ccccc1)Nc1ccc(S(=O)(=O)NC(=O)c2ccc(N3CCC([C@@H](O)c4ccccc4-c4ccc(Cl)cc4)CC3)cc2)cc1S(=O)(=O)C(F)(F)F` [AZD4320] + C1CN(CCC1(C(=O)N[C@@H](CCO)C2=CC=C(C=C2)Cl)N)C3=NC=NC4=C3C=CN4 [Capivasertib] (first compound max 1 µM, 7x7, partner max 3 µM), the Bliss excess in assay [1] was -0.0496; in assay [2] it was -0.0158; in assay [3], -0.0522; in assay [4] it was -0.0089; in [5], -0.025; in assay [6] it was -0.0476. The Bliss excess was -0.0509 in [7]; -0.0345 in assay [8]; -0.0393 in assay [9]; 0.001 in assay [10]; -0.0315 in [11]; -0.0712 in [12]. In addition, the Bliss excess in [13] is -0.0559; in [14] it was -0.0462; in assay [15] it was -0.0318; in assay [16], -0.0633; in [17], -0.0192; in assay [18], -0.0554. For the same compound, the Bliss excess in assay [19] was -0.0405; in assay [20], -0.017.

With `CN(CCO)CC[C@H](CSc1ccccc1)Nc1ccc(S(=O)(=O)NC(=O)c2ccc(N3CCC([C@@H](O)c4ccccc4-c4ccc(Cl)cc4)CC3)cc2)cc1S(=O)(=O)C(F)(F)F` [AZD4320] + C=CCn1c(=O)c2cnc(Nc3ccc(N4CCN(C)CC4)cc3)nc2n1-c1cccc(C(C)(C)O)n1 [AZD1775] (first compound max 1 µM, partner max 1 µM), the Bliss excess is -0.0201 in assay [1]; 0.0249 in [2]; 0.0586 in [3]; 0.0344 in [4]; 0.0782 in [5]; -0.0226 in assay [6]. The Bliss excess in assay [7] was 0.0361; in [8] it was 0.0652; in assay [9], 0.0007; in assay [10] it was 0.107; in [11], 0.0011; in [12] it was -0.0586. Also, the Bliss excess in [13] was 0.0546; in assay [14], -0.0412; in assay [15] it was 0.0322; in assay [16], -0.0677; in assay [17], 0.0681; in assay [18], -0.0509. Also, the Bliss excess in assay [19] was -0.0419; in assay [20], -0.0178.

`CN(CCO)CC[C@H](CSc1ccccc1)Nc1ccc(S(=O)(=O)NC(=O)c2ccc(N3CCC([C@@H](O)c4ccccc4-c4ccc(Cl)cc4)CC3)cc2)cc1S(=O)(=O)C(F)(F)F` [AZD4320] + CCN(CCO)CCCOc1ccc2c(Nc3cc(CC(=O)Nc4cccc(F)c4)[nH]n3)ncnc2c1 [AZD2811] (first compound max 1 µM, 7x7, partner max 1 µM): the Bliss excess is -0.0391 in [1]; 0.0092 in [2]; -0.0229 in [3]; -0.0337 in assay [4]; 0.0283 in [5]; 0.002 in assay [6]. In addition, the Bliss excess is -0.0631 in [7]; 0.0773 in [8]; -0.005 in [9]; -0.0231 in [10]; 0.0239 in assay [11]; 0.0251 in assay [12]. The Bliss excess in assay [13] is -0.0023; in assay [14], 0.0178; in assay [15], -0.015; in [16] it was -0.102; in assay [17], 0.0503; in assay [18] it was -0.0174. Also, the Bliss excess is -0.0022 in assay [19] and -0.0084 in assay [20].
